Results reported in patent US5395610A, “Agents for potentiating the effects of antitumor agents and combating multiple drug resistance” (Burroughs-Wellcome Co., priority 1989, dated 1995).
Structures can show the parent of a compound that is named as a salt. *1 amine or outer side, *2 acyl side, *3 side chain or, on linkers, in order; H or OH if unused. Where a SMILES comes first, the peptide text is derived from it. Bridges are numbered along the chain shown (N, C = ends). Roman numbers before positions name the chains, in order. [ ]: non-standard residue; d: D form. Actinocin(9to1) = Cc1c2oc3c(C)ccc(C(=O)[*:1])c3nc-2c(C(=O)[*:2])c(N)c1=O; NMeV = CN[C@H](C(=O)O)C(C)C; Sar = CNCC(=O)O

Legend:
[1] = test system: resistant sublines of murine leukemia cells; conditions: cited from earlier work
[2] = test system: Chinese hamster ovary (CHO) cells, wildtype AuxB1; test: cells; type: cell-based; conditions: Cricetulus griseus, AuxB1, read-out: reduction in cell number below the value of completely untreated cultures
[3] = test system: human KB epidermoid carcinoma cells, wildtype KB 3-1; test: In vitro cytotoxicity / potentiation of Actinomycin D in human KB epidermoid carcinoma cells, wildtype KB 3-1 (MTT); type: cell-based; conditions: 96 h, fraction of Act D alone
[4] = as above; type: cell-based; conditions: human, kb 3-1 cells, fraction of untreated cultures, read-out: Cytotoxicity, normalized absorbance, Wildtype KB 3-1, 0 (no Act D); for viability at 96 h, 1 µM: 1 μM potentiating agent alone; for viability at 96 h, 10 µM: 10 μM potentiating agent alone
[5] = In vitro cytotoxicity / potentiation of Actinomycin D in human KB epidermoid carcinoma cells, drug resistant KB V-1 (MTT); type: cell-based; conditions: human, kb v-1 cells, fraction of untreated cultures, read-out: Cytotoxicity, normalized absorbance, Drug Resistant KB V-1, 0 (no Act D); for viability at 96 h, 1 µM: 1 μM potentiating agent alone; for viability at 96 h, 10 µM: 10 μM potentiating agent alone
[6] = test system: human KB epidermoid carcinoma cells, drug resistant KB V-1; test: as above; type: cell-based; conditions: 96 h, fraction of Act D alone
in vitro = type: cell-based, Chinese hamster; conditions: hamster, cho auxb1 cells
[7] = In vitro cytotoxicity / potentiation of Actinomycin D in Chinese hamster ovary cells, drug resistant C5S32 (MTT); type: cell-based; conditions: hamster, cho c5s32 cells, fraction of untreated cultures (1.00), read-out: Cytotoxicity, normalized absorbance, Drug Resistant C5S32, 0 (no Act D); for viability at 96 h, 1 µM: 1 μM potentiating agent alone; for viability at 96 h, 10 µM: 10 μM potentiating agent alone
[8] = test system: Chinese hamster ovary (CHO) cells, drug resistant C5S32; test: as above; type: cell-based; conditions: 96 h, fraction of Act D alone (1.00)
[9] = 10 μM potentiating agent + Act D 0.1 nM
[10] = 10 μM potentiating agent + Act D 20 nM
[11] = 1 μM potentiating agent + Act D 0.5 μM
[12] = 10 μM potentiating agent + Act D 0.5 μM
[13] = 1 μM potentiating agent + Act D 0.1 nM
[14] = 1 μM potentiating agent + Act D 20 nM

Question: For `CN(C)CCCN1c2ccccc2CCc2ccc(Cl)cc21` [clomipramine], which “enhancement of the activity of antitumor agents against resistant sublines of murine leukemia cells” value (“enhancement” below) [1] is on record?
Answer: enhance the activity of antitumor agents

Question: Which “enhancement” value [1] does the source give for `C=C[C@H]1C[N@@]2CC[C@H]1C[C@@H]2[C@@H](O)c1ccnc2ccc(OC)cc12` [quinidine] here?
Answer: enhance the activity of antitumor agents

Question: Which inhibition at 0.01 µM [2] does the source give for `Cc1c2oc3c(C)ccc(C(=O)N[C@@H]4C(=O)N[C@H](C(C)C)C(=O)N5CCC[C@H]5C(=O)N(C)CC(=O)N(C)[C@@H](C(C)C)C(=O)O[C@@H]4C)c3nc-2c(C(=O)N[C@@H]2C(=O)N[C@H](C(C)C)C(=O)N3CCC[C@H]3C(=O)N(C)CC(=O)N(C)[C@@H](C(C)C)C(=O)O[C@@H]2C)c(N)c1=O` [Actinomycin D, reference compound] (I: T[dV]P[Sar][NMeV] / II: T[dV]P[Sar][NMeV]; ester I:1-I:C, II:1-II:C; linker I:N-II:N via Actinocin(9to1)) here?
Answer: 10 to 20%

Question: Which “enhancement” value [1] does the source give for `COc1ccc([C@@H]2Sc3ccccc3N(CCN(C)C)C(=O)[C@@H]2OC(C)=O)cc1` [diltiazem] here?
Answer: enhance the activity of antitumor agents

Question: Which “enhancement” value [1] does the source give for `CN1CCN(CCCN2c3ccccc3Sc3ccc(C(F)(F)F)cc32)CC1` [trifluoperazine] here?
Answer: enhance the activity of antitumor agents

Question: Which results are given for `CN(C)CC/C=C1\c2ccccc2COc2ccc(Br)cc21` [(B), (E)-3-(2-Bromo-6,11-dihydrodibenz [b,e]oxepin-11-ylidene)-N,N-dimethylpropylamine 3/2 hydrochloride]?
Answer: Synergism with Actinomycin D, normalized absorbance, Wildtype KB 3-1, +ACT D [3, 9]: 0.91; viability at 96 h, 1 µM [4]: 100%; viability at 96 h, 10 µM [4]: 83%; viability at 96 h, 1 µM [5]: 100%; viability at 96 h, 10 µM [5]: 44%; Synergism with Actinomycin D, normalized absorbance, Drug Resistant KB V-1, +ACT D [6, 10]: 0.01; viability at 96 h, 1 µM (in vitro): 98%; viability at 96 h, 10 µM (in vitro): 87%; viability at 96 h, 1 µM [7]: 83%; viability at 96 h, 10 µM [7]: 55%; Synergism with Actinomycin D, normalized absorbance, Drug Resistant C5S32, +ACT D [8, 11]: 0.82; Synergism with Actinomycin D, normalized absorbance, Drug Resistant C5S32, +ACT D [8, 12]: 0.37

Question: What does the source list for `Brc1ccc2c(c1)/C(=C/CCN1CCCC1)c1cc(Br)ccc1OC2` [(O), (Z)-1-[3-(2,9-dibromo-6,11-dihydrodibenz [b,e]-oxepin-11-ylidene)propyl]pyrrolidine]?
Answer: Synergism with Actinomycin D, normalized absorbance, Wildtype KB 3-1, +ACT D [3, 13]: 0.81; Synergism with Actinomycin D, normalized absorbance, Wildtype KB 3-1, +ACT D [3, 9]: 0.73; viability at 96 h, 1 µM [4]: 79%; viability at 96 h, 10 µM [4]: 64%; viability at 96 h, 1 µM [5]: 74%; viability at 96 h, 10 µM [5]: 7%; Synergism with Actinomycin D, normalized absorbance, Drug Resistant KB V-1, +ACT D [6, 14]: 0.78; Synergism with Actinomycin D, normalized absorbance, Drug Resistant KB V-1, +ACT D [6, 10]: 0.06; viability at 96 h, 1 µM (in vitro): 100%; viability at 96 h, 10 µM (in vitro): 93%; viability at 96 h, 1 µM [7]: 48%; viability at 96 h, 10 µM [7]: 35%; Synergism with Actinomycin D, normalized absorbance, Drug Resistant C5S32, +ACT D [8, 11]: 0.58; Synergism with Actinomycin D, normalized absorbance, Drug Resistant C5S32, +ACT D [8, 12]: 0.38

Question: Which results are given for `Brc1cccc2c1OCc1ccccc1C2=CCN1CCCC1` [(J), 1-[2-(4-Bromo-6,11-dihydrodibenz[b,e]oxepin-11-ylidine)-ethyl]pyrrolidine 60% Z, 40% E]?
Answer: Synergism with Actinomycin D, normalized absorbance, Wildtype KB 3-1, +ACT D [3, 13]: 0.85; Synergism with Actinomycin D, normalized absorbance, Wildtype KB 3-1, +ACT D [3, 9]: 0.77; viability at 96 h, 1 µM [4]: 89%; viability at 96 h, 10 µM [4]: 80%; viability at 96 h, 1 µM [5]: 88%; viability at 96 h, 10 µM [5]: 45%; Synergism with Actinomycin D, normalized absorbance, Drug Resistant KB V-1, +ACT D [6, 14]: 0.74; Synergism with Actinomycin D, normalized absorbance, Drug Resistant KB V-1, +ACT D [6, 10]: 0.01; viability at 96 h, 1 µM (in vitro): 100%; viability at 96 h, 10 µM (in vitro): 100%; viability at 96 h, 1 µM [7]: 80%; viability at 96 h, 10 µM [7]: 29%; Synergism with Actinomycin D, normalized absorbance, Drug Resistant C5S32, +ACT D [8, 11]: 0.66; Synergism with Actinomycin D, normalized absorbance, Drug Resistant C5S32, +ACT D [8, 12]: 0.12

Question: Which results are given for `CN(C)CC/C=C1/c2cc(Br)ccc2COc2ccccc21` [(C), (Z)-3-(9-Bromo-6,11-dihydrodibenz [b,e]oxepin-11-ylidene)-N,N-dimethylpropylamine]?
Answer: Synergism with Actinomycin D, normalized absorbance, Wildtype KB 3-1, +ACT D [3, 13]: 0.78; Synergism with Actinomycin D, normalized absorbance, Wildtype KB 3-1, +ACT D [3, 9]: 0.75; viability at 96 h, 1 µM [4]: 100%; viability at 96 h, 10 µM [4]: 100%; viability at 96 h, 1 µM [5]: 100%; viability at 96 h, 10 µM [5]: 34%; Synergism with Actinomycin D, normalized absorbance, Drug Resistant KB V-1, +ACT D [6, 14]: 0.97; Synergism with Actinomycin D, normalized absorbance, Drug Resistant KB V-1, +ACT D [6, 10]: 0.36; viability at 96 h, 1 µM (in vitro): 100%; viability at 96 h, 10 µM (in vitro): 92%; viability at 96 h, 1 µM [7]: 100%; viability at 96 h, 10 µM [7]: 100%; Synergism with Actinomycin D, normalized absorbance, Drug Resistant C5S32, +ACT D [8, 11]: 0.90; Synergism with Actinomycin D, normalized absorbance, Drug Resistant C5S32, +ACT D [8, 12]: 0.54

Question: With `COc1ccc(CCN(C)CCCC(C#N)(c2ccc(OC)c(OC)c2)C(C)C)cc1OC` (stereo not shown) [Verapamil] as the compound, how does the “enhancement” value [1] read?
Answer: enhance the activity of antitumor agents

Question: With `CN(C)CC/C=C1/c2ccccc2COc2ccc(F)cc21` [(Q), (Z)-3-(2-fluoro-6,11-dihydrodibenz [b,e]oxepin-11-ylidene)-N,N-dimethylpropylamine] as the compound, how does the “Synergism with Actinomycin D, normalized absorbance, Wildtype KB 3-1, +ACT D” value [3, 13] read?
Answer: 0.91

Question: What about the “Synergism with Actinomycin D, normalized absorbance, Wildtype KB 3-1, +ACT D” value [3, 9] of the same compound?
Answer: 0.78

Question: And the viability at 96 h, 1 µM [4]?
Answer: 92%

Question: What about the viability at 96 h, 10 µM [4] of the same compound?
Answer: 77%

Question: And the viability at 96 h, 1 µM [5]?
Answer: 86%

Question: What about the viability at 96 h, 10 µM [5] of the same compound?
Answer: 80%

Question: And the “Synergism with Actinomycin D, normalized absorbance, Drug Resistant KB V-1, +ACT D” value [6, 14]?
Answer: 0.83

Question: And the “Synergism with Actinomycin D, normalized absorbance, Drug Resistant KB V-1, +ACT D” value [6, 10]?
Answer: 0.65

Question: And the viability at 96 h, 1 µM (in vitro)?
Answer: 97%

Question: And the viability at 96 h, 10 µM (in vitro)?
Answer: 93%

Question: What about the viability at 96 h, 1 µM [7] of the same compound?
Answer: 53%

Question: And the viability at 96 h, 10 µM [7]?
Answer: 33%

Question: What about the “Synergism with Actinomycin D, normalized absorbance, Drug Resistant C5S32, +ACT D” value [8, 11] of the same compound?
Answer: 0.69

Question: And the “Synergism with Actinomycin D, normalized absorbance, Drug Resistant C5S32, +ACT D” value [8, 12]?
Answer: 0.37

Question: With `COC(=O)C1=C(C)NC(C)=C(C(=O)OCCN(C)Cc2ccccc2)C1c1cccc([N+](=O)[O-])c1` (stereo not shown) [nicardipine] as the compound, how does the “enhancement” value [1] read?
Answer: enhance the activity of antitumor agents

Question: Which “enhancement” value [1] does the source give for `CCN(CC)CCn1c(=O)c(Cc2ccc(OC)cc2)nc2ccccc21` [caroverine] here?
Answer: enhance the activity of antitumor agents
